# Laboratory results from US9426991B2, “Synergistic weed control from applications of aminocyclopyrachlor and picloram” (Dow AgroSciences LLC, priority 2012, dated 2016).
# Tested on: broomweed (Sida acuta, SIDAC)
# Assay: Field trial, post-emergence foliar application, weed control rating 0-100%
# Type: in vivo
# Details: for Picloram-Potassium Mean % weed control: 180 g ae/ha alone; for Aminocyclopyrachlor Mean % weed control: 150 g ae/ha alone
# From the text: The (a) aminocyclopyrachloror an agriculturally acceptable salt or ester thereof is mixed with or applied in combination with (b) picloram or an agriculturally acceptable salt or ester thereof in an amount sufficient to induce a synergistic herbicidal effect. […] As described in the Herbicide Handbook of the Weed Science Society of America, Ninth Edition, 2007, p. 429, “‘synergism’ [is] an interaction of two or more factors such that the effect when combined is greater than the predicted effect based on the response to each factor applied separately.” Synergistic in the herbicide context can mean that the use of (a) and (b) as defined above results in an increased weed control effect compared to the weed control effects that are possible with the use of (a) or (b) alone. In some embodiments, the damage or injury to the undesired vegetation caused by the compositions and methods disclosed herein is evaluated using a scale from 0% to 100%, when compared with the untreated control vegetation, wherein 0% indicates no damage to the undesired vegetation and 100% indicates complete destruction of the undesired vegetation. […] 22 (1967)
# Field trials were conducted with applications made to established grassland with naturally occurring weed populations. The target plants were treated with postemergence foliar applications when they were at the beginning of the flowering stage and 30 centimeters (11.8 inches) tall. All treatments were applied using a randomized complete block trial design, with four replications per treatment.
# Treatments consisted of aminocyclopyrachlor in acid form and picloram-potassium, each in water and applied alone or in combination. Spray solutions were prepared using an appropriate amount of dilution to form a 2.0-liter (L) aqueous spray solution with active ingredients in single and two-way combinations. Formulated compounds were applied to the plant material with a backpack sprayer equipped with 8003 nozzles calibrated to deliver 400 liters per hectare (L/ha) at a spray height of 18-20 in (45-51 cm) above average plant canopy.
# The treated plant was broomweed (Sida acuta, SIDAC). The treated plots and control plots were rated blind at various intervals after application. Ratings were based on a scale of 0-100%, as discussed above, wherein 0% indicates no damage to the undesired vegetation and 100% indicates complete destruction of the undesired vegetation
# Colby's equation was used to determine the herbicidal effects expected from the mixtures, as described above. The results were measured at 59 days, 75 days, and 88 days after the first application of the compositions. […] The herbicide tank mix combinations tested, application rates and ratios employed, plant species tested, and results are given below.
Structure (SMILES),Picloram-Potassium Mean % weed control (59 days after application) [%],Picloram-Potassium Mean % weed control (75 days after application) [%],Picloram-Potassium Mean % weed control (88 days after application) [%],Aminocyclopyrachlor Mean % weed control (59 days after application) [%],Aminocyclopyrachlor Mean % weed control (75 days after application) [%],Aminocyclopyrachlor Mean % weed control (88 days after application) [%]
"Nc1c(Cl)c(Cl)nc(C(=O)O)c1Cl [Picloram-Potassium, 4-amino-3,5,6-trichloro-2-pyridinecarboxylic acid]",6.3,3.8,5.5,,,
"Nc1nc(C2CC2)nc(C(=O)O)c1Cl [Aminocyclopyrachlor, 6-amino-5-chloro-2-cyclopropylpyrimidine-4-carboxylic acid]",,,,42.5,36.3,41.3
